Assay results from ChEMBL document CHEMBL5579851, “Synthesis and antifungal evaluation of novel triazole derivatives bearing a pyrazole-methoxyl moiety” (Eur J Med Chem, 2024).
Converted amounts (≈) assume the structure as drawn.

Assays:
Format in all cases: functional
Candida albicans [1] = assay: Antifungal activity against Candida albicans SC5314 assessed as inhibition of fungal growth incubated for 48 hrs by CLSI based broth microdilution assay
Candida albicans [2] = assay: Antifungal activity against Candida albicans 10231 assessed as inhibition of fungal growth incubated for 48 hrs by CLSI based broth microdilution assay
Cryptococcus neoformans = assay: Antifungal activity against Cryptococcus neoformans 32609 assessed as inhibition of fungal growth incubated for 72 hrs by CLSI based broth microdilution assay
Nakaseomyces glabratus = assay: Antifungal activity against Candida glabrata 537 assessed as inhibition of fungal growth incubated for 48 hrs by CLSI based broth microdilution assay
Candida parapsilosis = assay: Antifungal activity against Candida parapsilosis 22019 assessed as inhibition of fungal growth incubated for 48 hrs by CLSI based broth microdilution assay; details: Lodderomyces parapsilosis
Pichia kudriavzevii = assay: Antifungal activity against Candida krusei 4996 assessed as inhibition of fungal growth incubated for 48 hrs by CLSI based broth microdilution assay
Candida tropicalis = assay: Antifungal activity against Candida tropicalis 8915 assessed as inhibition of fungal growth incubated for 48 hrs by CLSI based broth microdilution assay
Candida albicans [3] = assay: Antifungal activity against fluconazole-resistant Candida albicans 901 assessed as inhibition of fungal growth incubated for 48 hrs by CLSI based broth microdilution assay
Candida albicans [4] = assay: Antifungal activity against fluconazole-resistant Candida albicans 904 assessed as inhibition of fungal growth incubated for 48 hrs by CLSI based broth microdilution assay
[Candida] auris [5] = Antifungal activity against fluconazole-resistant Candida auris 891 assessed as inhibition of fungal growth incubated for 48 hrs by CLSI based broth microdilution assay; details: Candidozyma auris
[Candida] auris [6] = Antifungal activity against fluconazole-resistant Candida auris 918 assessed as inhibition of fungal growth incubated for 48 hrs by CLSI based broth microdilution assay; details: Candidozyma auris
[Candida] auris [7] = Antifungal activity against fluconazole-resistant Candida auris 919 assessed as inhibition of fungal growth incubated for 48 hrs by CLSI based broth microdilution assay; details: Candidozyma auris

| MIC (Candida albicans [1]) [µg/mL] | MIC (Candida albicans [2]) [µg/mL] | MIC (Cryptococcus neoformans) [µg/mL] | MIC (Nakaseomyces glabratus) [µg/mL] | MIC (Candida parapsilosis) [µg/mL] | MIC (Pichia kudriavzevii) [µg/mL] | MIC (Candida tropicalis) [µg/mL] | Structure (SMILES) | MIC (Candida albicans [3]) [µg/mL] | MIC (Candida albicans [4]) [µg/mL] | MIC ([Candida] auris [5]) [µg/mL] | MIC ([Candida] auris [6]) [µg/mL] | MIC ([Candida] auris [7]) [µg/mL] |
| --- | --- | --- | --- | --- | --- | --- | --- | --- | --- | --- | --- | --- |
| 0.25 (≈ 0.492 µM) | 0.5 (≈ 0.984 µM) | 0.25 (≈ 0.492 µM) | 0.5 (≈ 0.984 µM) | 1 (≈ 1.97 µM) | 8 (≈ 15.7 µM) | 32 (≈ 62.9 µM) | C[C@@H](OCc1ccn(Cc2c(Cl)cccc2Cl)n1)[C@](O)(Cn1cncn1)c1ccc(F)cc1F |  |  |  |  |  |
| ≤ 0.125 | 0.25 (≈ 0.547 µM) | 0.25 (≈ 0.547 µM) | 0.25 (≈ 0.547 µM) | 0.5 (≈ 1.09 µM) | 8 (≈ 17.5 µM) | ~64 (≈ 140 µM) | C[C@@H](OCc1ccn(Cc2ccccc2F)n1)[C@](O)(Cn1cncn1)c1ccc(F)cc1F |  |  |  |  |  |
| ≤ 0.125 | 0.25 (≈ 0.508 µM) | 0.25 (≈ 0.508 µM) | 1 (≈ 2.03 µM) | 1 (≈ 2.03 µM) | 4 (≈ 8.13 µM) | 8 (≈ 16.3 µM) | C[C@@H](OCc1ccn(Cc2ccc(F)cc2Cl)n1)[C@](O)(Cn1cncn1)c1ccc(F)cc1F |  |  |  |  |  |
| ≤ 0.125 | 0.25 (≈ 0.528 µM) | 0.25 (≈ 0.528 µM) | 0.5 (≈ 1.06 µM) | 0.5 (≈ 1.06 µM) | 8 (≈ 16.9 µM) | 32 (≈ 67.5 µM) | C[C@@H](OCc1ccn(Cc2ccccc2Cl)n1)[C@](O)(Cn1cncn1)c1ccc(F)cc1F |  |  |  |  |  |
| 0.25 (≈ 0.493 µM) | ≤ 0.125 | 0.5 (≈ 0.985 µM) | 1 (≈ 1.97 µM) | 0.5 (≈ 0.985 µM) | 4 (≈ 7.88 µM) | 0.5 (≈ 0.985 µM) | C[C@@H](OCc1ccn(Cc2ccc(C(F)(F)F)cc2)n1)[C@](O)(Cn1cncn1)c1ccc(F)cc1F |  |  |  |  |  |
| 0.25 (≈ 0.478 µM) | 0.25 (≈ 0.478 µM) | 0.5 (≈ 0.955 µM) | 2 (≈ 3.82 µM) | 0.5 (≈ 0.955 µM) | 2 (≈ 3.82 µM) | 0.5 (≈ 0.955 µM) | C[C@@H](OCc1ccn(Cc2ccc(OC(F)(F)F)cc2)n1)[C@](O)(Cn1cncn1)c1ccc(F)cc1F |  |  |  |  |  |
| ≤ 0.125 | 0.25 (≈ 0.551 µM) | 0.5 (≈ 1.1 µM) | 2 (≈ 4.41 µM) | 0.25 (≈ 0.551 µM) | 2 (≈ 4.41 µM) | 16 (≈ 35.3 µM) | Cc1ccc(Cn2ccc(CO[C@H](C)[C@](O)(Cn3cncn3)c3ccc(F)cc3F)n2)cc1 |  |  |  |  |  |
| 0.25 (≈ 0.492 µM) | 0.25 (≈ 0.492 µM) | 0.5 (≈ 0.984 µM) | 1 (≈ 1.97 µM) | 0.25 (≈ 0.492 µM) | 4 (≈ 7.87 µM) | 32 (≈ 62.9 µM) | C[C@@H](OCc1ccn(Cc2ccc(Cl)cc2Cl)n1)[C@](O)(Cn1cncn1)c1ccc(F)cc1F |  |  |  |  |  |
| ≤ 0.125 | ≤ 0.125 | 0.25 (≈ 0.547 µM) | 0.25 (≈ 0.547 µM) | 0.5 (≈ 1.09 µM) | 4 (≈ 8.74 µM) | 64 (≈ 140 µM) | C[C@@H](OCc1ccn(Cc2cccc(F)c2)n1)[C@](O)(Cn1cncn1)c1ccc(F)cc1F |  |  |  |  |  |
| ≤ 0.125 | 0.5 (≈ 1.05 µM) | 0.5 (≈ 1.05 µM) | 0.5 (≈ 1.05 µM) | 0.5 (≈ 1.05 µM) | 16 (≈ 33.7 µM) | 0.25 (≈ 0.526 µM) | C[C@@H](OCc1ccn(Cc2c(F)cccc2F)n1)[C@](O)(Cn1cncn1)c1ccc(F)cc1F |  |  |  |  |  |
| ≤ 0.125 | 0.25 (≈ 0.551 µM) | 0.5 (≈ 1.1 µM) | 4 (≈ 8.82 µM) | 0.5 (≈ 1.1 µM) | 8 (≈ 17.6 µM) | > 64 | Cc1cccc(Cn2ccc(CO[C@H](C)[C@](O)(Cn3cncn3)c3ccc(F)cc3F)n2)c1 |  |  |  |  |  |
| ≤ 0.125 | 0.25 (≈ 0.551 µM) | 0.5 (≈ 1.1 µM) | 1 (≈ 2.21 µM) | 0.5 (≈ 1.1 µM) | 8 (≈ 17.6 µM) | > 64 | Cc1ccccc1Cn1ccc(CO[C@H](C)[C@](O)(Cn2cncn2)c2ccc(F)cc2F)n1 |  |  |  |  |  |
| ≤ 0.125 | 0.25 (≈ 0.532 µM) | 0.5 (≈ 1.06 µM) | 0.5 (≈ 1.06 µM) | 1 (≈ 2.13 µM) | 8 (≈ 17 µM) | > 64 | COc1ccc(Cn2ccc(CO[C@H](C)[C@](O)(Cn3cncn3)c3ccc(F)cc3F)n2)cc1 |  |  |  |  |  |
| 0.25 (≈ 0.492 µM) | 0.5 (≈ 0.984 µM) | 0.25 (≈ 0.492 µM) | 0.5 (≈ 0.984 µM) | 1 (≈ 1.97 µM) | 4 (≈ 7.87 µM) | 32 (≈ 62.9 µM) | C[C@@H](OCc1ccn(Cc2cc(Cl)ccc2Cl)n1)[C@](O)(Cn1cncn1)c1ccc(F)cc1F |  |  |  |  |  |
| ≤ 0.125 | ≤ 0.125 | 0.5 (≈ 1.06 µM) | 0.5 (≈ 1.06 µM) | 0.5 (≈ 1.06 µM) | 4 (≈ 8.44 µM) | 0.25 (≈ 0.528 µM) | C[C@@H](OCc1ccn(Cc2cccc(Cl)c2)n1)[C@](O)(Cn1cncn1)c1ccc(F)cc1F |  |  |  |  |  |
| 0.5 (≈ 1.14 µM) | 0.5 (≈ 1.14 µM) | 0.25 (≈ 0.569 µM) | 0.25 (≈ 0.569 µM) | 0.5 (≈ 1.14 µM) | 4 (≈ 9.1 µM) | 32 (≈ 72.8 µM) | C[C@@H](OCc1ccn(Cc2ccccc2)n1)[C@](O)(Cn1cncn1)c1ccc(F)cc1F |  |  |  |  |  |
| ≤ 0.125 | 0.25 (≈ 0.538 µM) | 1 (≈ 2.15 µM) | 1 (≈ 2.15 µM) | 0.5 (≈ 1.08 µM) | 8 (≈ 17.2 µM) | 0.5 (≈ 1.08 µM) | C[C@@H](OCc1ccn(Cc2ccc(C#N)cc2)n1)[C@](O)(Cn1cncn1)c1ccc(F)cc1F |  |  |  |  |  |
| 0.25 (≈ 0.492 µM) | ≤ 0.125 | 0.5 (≈ 0.984 µM) | 0.5 (≈ 0.984 µM) | 0.25 (≈ 0.492 µM) | 8 (≈ 15.7 µM) | 16 (≈ 31.5 µM) | C[C@@H](OCc1ccn(Cc2cccc(Cl)c2Cl)n1)[C@](O)(Cn1cncn1)c1ccc(F)cc1F |  |  |  |  |  |
| 0.25 (≈ 0.461 µM) | 0.5 (≈ 0.921 µM) | ≤ 0.125 | 1 (≈ 1.84 µM) | 2 (≈ 3.68 µM) | 8 (≈ 14.7 µM) | 64 (≈ 118 µM) | C[C@@H](OCc1ccn(Cc2c(Cl)cc(Cl)cc2Cl)n1)[C@](O)(Cn1cncn1)c1ccc(F)cc1F |  |  |  |  |  |
| 0.25 (≈ 0.507 µM) | 0.5 (≈ 1.01 µM) | 0.5 (≈ 1.01 µM) | 0.5 (≈ 1.01 µM) | 0.5 (≈ 1.01 µM) | 8 (≈ 16.2 µM) | 64 (≈ 130 µM) | C[C@@H](OCc1ccn(Cc2c(F)cc(F)cc2F)n1)[C@](O)(Cn1cncn1)c1ccc(F)cc1F |  |  |  |  |  |
| ≤ 0.125 | 0.25 (≈ 0.526 µM) | 0.5 (≈ 1.05 µM) | 0.25 (≈ 0.526 µM) | 0.5 (≈ 1.05 µM) | 8 (≈ 16.8 µM) | 0.25 (≈ 0.526 µM) | C[C@@H](OCc1ccn(Cc2cccc(F)c2F)n1)[C@](O)(Cn1cncn1)c1ccc(F)cc1F |  |  |  |  |  |
| ≤ 0.125 | ≤ 0.125 | 0.5 (≈ 1.03 µM) | ≤ 0.125 | 0.25 (≈ 0.516 µM) | 4 (≈ 8.26 µM) | 0.5 (≈ 1.03 µM) | C[C@@H](OCc1ccn(Cc2ccc([N+](=O)[O-])cc2)n1)[C@](O)(Cn1cncn1)c1ccc(F)cc1F |  |  |  |  |  |
| ≤ 0.125 | 0.25 (≈ 0.526 µM) | 0.5 (≈ 1.05 µM) | 0.25 (≈ 0.526 µM) | 0.5 (≈ 1.05 µM) | 4 (≈ 8.41 µM) | 0.25 (≈ 0.526 µM) | C[C@@H](OCc1ccn(Cc2ccc(F)cc2F)n1)[C@](O)(Cn1cncn1)c1ccc(F)cc1F |  |  |  |  |  |

| Structure (SMILES) | MIC (Candida albicans [1]) [µg/mL] | MIC (Candida albicans [2]) [µg/mL] | MIC (Cryptococcus neoformans) [µg/mL] | MIC (Nakaseomyces glabratus) [µg/mL] | MIC (Candida parapsilosis) [µg/mL] | MIC (Pichia kudriavzevii) [µg/mL] | MIC (Candida tropicalis) [µg/mL] | MIC (Candida albicans [3]) [µg/mL] | MIC (Candida albicans [4]) [µg/mL] | MIC ([Candida] auris [5]) [µg/mL] | MIC ([Candida] auris [6]) [µg/mL] | MIC ([Candida] auris [7]) [µg/mL] |
| --- | --- | --- | --- | --- | --- | --- | --- | --- | --- | --- | --- | --- |
| C[C@@H](OCc1ccn(Cc2cc(F)ccc2F)n1)[C@](O)(Cn1cncn1)c1ccc(F)cc1F | ≤ 0.125 | 0.25 (≈ 0.526 µM) | 0.5 (≈ 1.05 µM) | 0.25 (≈ 0.526 µM) | 0.5 (≈ 1.05 µM) | 4 (≈ 8.41 µM) | 0.25 (≈ 0.526 µM) | > 64 | > 64 | 16 (≈ 33.7 µM) | 32 (≈ 67.3 µM) | 32 (≈ 67.3 µM) |
| C[C@@H](OCc1ccn(Cc2ccc(Cl)cc2F)n1)[C@](O)(Cn1cncn1)c1ccc(F)cc1F | ≤ 0.125 | 0.25 (≈ 0.508 µM) | 0.25 (≈ 0.508 µM) | 0.25 (≈ 0.508 µM) | 0.5 (≈ 1.02 µM) | 2 (≈ 4.07 µM) | 0.5 (≈ 1.02 µM) | 16 (≈ 32.5 µM) | 8 (≈ 16.3 µM) | 8 (≈ 16.3 µM) | 32 (≈ 65.1 µM) | 16 (≈ 32.5 µM) |
| C[C@@H](OCc1ccn(Cc2ccc(I)cc2)n1)[C@](O)(Cn1cncn1)c1ccc(F)cc1F | ≤ 0.125 | ≤ 0.125 | 0.25 (≈ 0.442 µM) | ≤ 0.125 | 0.25 (≈ 0.442 µM) | 2 (≈ 3.54 µM) | 0.5 (≈ 0.884 µM) | 8 (≈ 14.2 µM) | 16 (≈ 28.3 µM) | 16 (≈ 28.3 µM) | 16 (≈ 28.3 µM) | 4 (≈ 7.08 µM) |
